# Patent US9803021B2 (The Regents of the University of California, priority 2012, dated 2017)
# Entries after “also recorded” stand apart in the source; their conditions may differ.
# How the values were obtained:
# Format in all cases: cell-based, human
# OPM-2 = test: MTS assay (cell viability / metabolic activity)
# Method: (§1) Percent cell viability was determined using MTS solution (Promega, Madison, Wis.) by measuring absorbance at 490 nm using a Synergy HT Multi-Detection Microplate Reader (BioTek Instruments, Inc., Winooski, Vt.) with untreated cells being 100%. GraphPad Prism (GraphPad Software Inc., La Jolla, Calif.) was used to analyze data by non-linear regression with the log (inhibitor) vs. the response with a variable slope with the IC50 calculated. Data are expressed as a percentage of maximum metabolic activity. The experiments were performed in triplicate.
# To determine if the HMCLs were sensitive to treatment with IFNα fusion protein, HMCLs were incubated with varying concentrations of anti-CD138-IFNα, and cell viability was assessed. Anti-CD138-IFNα was used to target IFNα to the MM cell lines while anti-CD20-IFNα was used as an untargeted control. […] The MM cell lines differed in their response to treatment with the fusion proteins.
# 8226/Dox40 = test: MTS assay (cell viability / metabolic activity); details: 8226/Dox40, 3 days
# Method: as §1
# (§2) To determine if the HMCLs were sensitive to treatment with IFNα fusion protein, HMCLs were incubated with varying concentrations of anti-CD138-IFNα, and cell viability was assessed. Anti-CD138-IFNα was used to target IFNα to the MM cell lines while anti-CD20-IFNα was used as an untargeted control. After 3 days of treatment, cell viability was measured by MTS activity. The MM cell lines differed in their response to treatment with the fusion proteins.
# Delta 47 = test: MTS assay (cell viability / metabolic activity)
# Method: as §1, §2
# OPM-1 = test: MTS assay (cell viability / metabolic activity)
# Method: as §1, §2
# S6B45 = test: MTS assay (cell viability / metabolic activity); details: S6B45, 3 days
# Method: as §1, §2
# XG-1 = test: MTS assay (cell viability / metabolic activity); details: XG-1, 3 days
# Method: as §1, §2
# XG-2 = test: MTS assay (cell viability / metabolic activity); details: XG-2, 3 days
# Method: as §1, §2
# ANBL-6 [1] = test: Cell cycle analysis (PI DNA content, flow cytometry); details: ANBL-6, 500 pM, 4 days
# Method: (§3) Cells were incubated with 1 ml of hypotonic DNA staining buffer (1 mg/ml sodium citrate, 100 μg/ml PI, 20 μg/ml RNase A, and 0.3% Triton X-100 in dH2O) for 30-60 min at 4° C. in the dark. Cells were analyzed by flow cytometry and cell cycle analysis performed using FlowJo software with the Watson Model.
# (§4) Cells were incubated with 1 ml of hypotonic DNA staining buffer (1 mg/ml sodium citrate, 100 μg/ml PI, 20 μg/ml RNase A, and 0.3% Triton X-100) for 30-60 minutes at 4° C. in the dark. Cells were analyzed by flow cytometry and cell cycle analysis performed using FlowJo software with the Watson Model.
# MM1-144 [2] = test: as above; details: MM1-144, 500 pM, 4 days
# Method: as §3, §4
# NCI-H929 [3] = test: as above; details: NCI-H929, 500 pM, 4 days
# Method: as §3, §4
# OCI-My5 [4] = test: as above; details: OCI-My5, 500 pM, 4 days
# Method: as §3, §4
# U266 [5] = test: as above; details: U266, 500 pM, 4 days
# Method: as §3, §4
# ANBL-6 [6] = test: Senescence induced β-gal activity at pH 6 (C12FDG, flow cytometry); details: ANBL-6, 1 nM, 3 days (data not shown)
# Method: (§5) Senescence induced β-galactosidase (β-gal) activity was detected as described previously (Debacq-Chainiaux et al. (2009) Nature Protocols, 4: 1798-1806). […] To induce lysosomal alkalinization, cells were incubated in 100 nM bafilomycin A1 (Sigma) for 1 h. Then cells were incubated for 30 min with the β-gal substrate dodecanoylaminofluorescein di-β-D-galactopyranoside (C12FDG; Invitrogen), which becomes fluorescent after cleavage by β-gal. After washing twice with cold PBS, cells were resuspended in cold PBS containing 1 mM phenylethyl thiogalactoside (PETG), a β-gal inhibitor, and analyzed by flow cytometry for C12-fluorescein.
# (§6) Intracellular β-galactosidase (β-gal) activity was measured as an indicator for replicative senescence. […] After treatment, cells were incubated with 100 nM bafilomycin A1 (Sigma) for 1 hour to induce lysosomal alkalinization. Then cells were incubated for 30 minutes with the 33 μM of β-gal substrate dodecanoylaminofluorescein di-β-D-galactopyranoside (C12FDG; Invitrogen), which becomes fluorescent after cleavage to C12-fluorescein. After washing twice with cold PBS, cells were resuspended in cold PBS containing 1 mM phenylethyl thiogalactoside (PETG), a β-gal inhibitor, and analyzed by flow cytometry for C12-fluorescein.
# MM1-144 [7] = test: as above; details: MM1-144, 1 nM, 3 days
# Method: as §5, §6
# NCI-H929 [8] = test: as above; details: 1 nM, 3 days, listed as anti-CD138-IFNα2
# Method: as §5, §6
# OCI-My5 [9] = test: as above
# Method: as §5, §6
# U266 [10] = test: as above; details: U266, 1 nM, 3 days
# Method: as §5, §6
substance,measurement,setting,value
"anti-CD138-IFNα: Fusion protein: murine B-B4 anti-CD138 variable regions, human IgG1κ constant regions, human IFNα2 fused to the antibody C-terminus via SGGGGS linker","cell viability (MTS assay), result in words","OPM-2; OPM-2, 3 days",little or no effect
same,"cell viability (MTS assay), result in words","OPM-2; OPM-2, treatment increased to 4 days (data not shown)",decrease in viability
same,"cell viability (MTS assay), result in words",8226/Dox40,intermediate effect
same,"cell viability (MTS assay), result in words",8226/Dox40; listed as Anti-CD138-IFNα2,some effect was observed only at high concentrations
same,"cell viability (MTS assay), result in words","Delta 47; Delta 47, 3 days",little or no effect
same,"cell viability (MTS assay), result in words","Delta 47; Delta 47, treatment increased to 4 days (data not shown)",decrease in viability
same,"cell viability (MTS assay), result in words","OPM-1; OPM-1, 3 days",little or no effect
same,"cell viability (MTS assay), result in words","OPM-1; OPM-1, treatment increased to 4 days (data not shown)",decrease in viability
same,"cell viability (MTS assay), result in words",S6B45,intermediate effect
same,"cell viability (MTS assay), result in words",S6B45; listed as Anti-CD138-IFNα2,some effect was observed only at high concentrations
same,"cell viability (MTS assay), result in words",XG-1,little or no effect
same,"cell viability (MTS assay), result in words",XG-2,little or no effect
same,% G1,ANBL-6 [1],63.6%
same,% G2/M,ANBL-6 [1],18.0%
same,% S,ANBL-6 [1],14.0%
same,>G2,ANBL-6 [1],0.0%
same,Sub G0/G1,ANBL-6 [1],19.6%
same,% G1,MM1-144 [2],22.6%
same,% G2/M,MM1-144 [2],34.3%
same,% S,MM1-144 [2],29.9%
same,>G2,MM1-144 [2],11.2%
same,Sub G0/G1,MM1-144 [2],11.3%
same,% G1,NCI-H929 [3],41.9%
same,% G2/M,NCI-H929 [3],24.3%
same,% S,NCI-H929 [3],21.0%
same,>G2,NCI-H929 [3],8.2%
same,Sub G0/G1,NCI-H929 [3],18.9%
same,% G1,OCI-My5 [4],25.6%
same,% G2/M,OCI-My5 [4],20.5%
same,% S,OCI-My5 [4],49.0%
same,>G2,OCI-My5 [4],1.5%
same,Sub G0/G1,OCI-My5 [4],17.9%
same,"changes in cell cycle / DNA content, result in words",OCI-My5 [4],did not cause apoptosis or blocks to cell cycle progression
same,% G1,U266 [5],53.9%
same,% G2/M,U266 [5],15.1%
same,% S,U266 [5],21.4%
same,>G2,U266 [5],5.5%
same,Sub G0/G1,U266 [5],13.2%
same,"β-gal activity at pH 6 (senescence), result in words",ANBL-6 [6],no increases
same,"β-gal activity at pH 6 (senescence), result in words",MM1-144 [7],increases in β-gal activity
same,"β-gal activity at pH 6 (senescence), result in words",NCI-H929 [8],increases in β-gal activity; also recorded: greater effect than with IFNα2 alone
same,"β-gal activity at pH 6 (senescence), result in words","OCI-My5 [9]; OCI-My5, 1 nM, 3 days (also 4, 6, 7 days)",little or no increase in β-gal activity
same,Mode of Action of anti-CD138-IFNα fusion,"OCI-My5 [9]; OCI-My 5, footnote †",senescence†
same,"β-gal activity at pH 6 (senescence), result in words",U266 [10],no increase under any conditions
